A word on the AUC(0-t): it is exposure summed from dosing to a finite time, without extrapolation to infinity. Lower therefore signals less exposure. As usually defined, the clearance is a measure of how efficiently the substance is removed, as volume per time. A low value points to inefficient removal. As usually defined, the bioavailability is the share of a dose that reaches the circulation, judged against a reference dose that is usually intravenous. A high value points to good availability. The term Cmax denotes the maximum level reached in the sampled fluid or tissue.

Data on two compounds can be found in patent US20240409543A1, “PYRROLOPYRAZOLE SPIRO COMPOUND” (CHIA TAI TIANQING PHARMACEUTICAL GROUP CO., LTD., priority 2021, published 2024).

The nature of series [1]: In-vivo pharmacokinetic study in rats. The settings on record: male, SD, rat, plasma. Here is the method:
This experiment was intended to evaluate the pharmacokinetic behavior of each compound after a single intravenous injection and intragastric administration and to investigate the bioavailability after intragastric administration.
Male SD rats aged 7 to 10 weeks were selected. The rats were fasted for at least 12 h before administration and were allowed to feed again 4 h after administration, with free access to water throughout the experiment.
On the day of the experiment, animals in the intravenous group were given the corresponding compound by a single injection via the tail vein at an administration volume of 5 mL/kg; the oral group was given the corresponding compound by a single intragastric administration at an administration volume of 10 mL/kg. The animals were weighed before administration, and the administration volume was calculated based on their body weight. Sample collection time points: 0.083 h (injection group), 0.25 h, 0.5 h, 1 h, 2 h, 4 h, 6 h, 8 h, and 24 h. At each time point, approximately 200 μL of whole blood was collected via the jugular vein, which was then used to prepare plasma for concentration determination by high performance liquid chromatography-tandem mass spectrometry (LC-MS/MS).
All animals were euthanized with CO2 anesthesia after the PK samples were taken at the last time point. The plasma concentrations were processed using a non-compartmental model of the pharmacokinetic software WinNonlin™ Version 6.3 (Pharsight, Mountain View, CA), and the pharmacokinetic parameters were calculated using a linear log-trapezoidal method.

Series [2] concerns human pancreatic cancer MIA PaCa-2 cell line subcutaneous xenograft. Put plainly: In-vivo inhibition of MiaPaCa-2 subcutaneous xenograft tumor. Also on record: species or system female BALB/c nude mouse. Here is the method: To evaluate the antitumor effect of each test drug in a female BALB/c nude mouse animal model with subcutaneous xenograft of a human pancreatic cancer MIA PaCa-2 cell line.
MIA PaCa-2 cells were cultured in a DMEM medium containing 2.5% HS and 10% fetal bovine serum. MIA PaCa-2 cells in the logarithmic growth phase were collected and resuspended in PBS to achieve an appropriate concentration for subcutaneous tumor inoculation in nude mice.
The experimental mice were inoculated subcutaneously on the right dorsal side with 5×10^6 MIA PaCa-2 cells (the cells were resuspended in a 1:1 mixture of PBS and matrigel), with 0.1 mL per mouse. Tumor growth was observed regularly. Once the tumors reached an average volume of approximately 125 (100-150) mm^3, the mice were randomly divided into groups for administration based on the tumor size and body weight.
After the start of the administration, the body weight and tumor size of the mice were measured twice a week. Calculation formula for tumor volume: Tumor volume (mm^3)=1/2×(a×b^2) (where a represents long diameter and b represents short diameter).

The mark [3] stands for this setting: iv, injection (tail vein), dose 2 mg/kg.
[4] abbreviates: oral administration, dose 20 mg/kg.
[5] abbreviates: Day 12, 30 mg/kg oral once daily.
The mark [6] stands for this setting: Day 39, 30 mg/kg oral once daily.

In series [1] (setting [3]), `Cc1nc(N2CCC3(CC2)Cn2nccc2C3N)c(CO)nc1Sc1ccnc(N)c1Cl` (centres unmarked) [Compound 1] came in with an AUC(0-t) of 4.05 µM·h and a clearance of 17.3 mL/min/kg. This compound yielded a bioavailability in series [1] (oral 20 mg/kg vs injection 2 mg/kg) of 98%. In addition, in series [1] (setting [4]), the AUC(0-t) stood at 39.7 µM·h and the Cmax turned out to be 9.73 µM. The compound further gave a Mean tumor volume in series [2] (setting [5]) of 129.20 mm^3. Besides, in series [2] (setting [6]), the “Inhibition rate (%) at day 39” value is listed as 63.1% and the Mean tumor volume was 278.34 mm^3.
For the compound `CNc1nccc(Sc2nc(CO)c(N3CCC4(CC3)Cn3nccc3C4N)nc2C)c1Cl` (centres unmarked) [Compound 2], the Mean tumor volume in series [2] (setting [5]) is recorded as 129.17 mm^3. Further, in series [2] (setting [6]), the “Inhibition rate (%) at day 39” value is listed as 66.6% and the Mean tumor volume came to 248.09 mm^3.
